In the NIST ThermoML archive (doi:10.1016/j.jct.2016.02.016):

How the values were obtained:
[1] = xn = mol fraction of the nth substance listed; settings: 100 kPa, Liquid; for speed of sound: Frequency=3 MHz, Sing-around technique in a fixed-path interferometer; for mass density: Vibrating tube method
[2] = refractive index (Na D-line) (dimensionless); xn = mol fraction of the nth substance listed; settings: 100 kPa, Liquid, Standard Abbe refractometry

CCC(C)=O [butanone] + CN(C)C=O
Settings	mass density, [1] [kg/m3]	refractive index, [2]	speed of sound, [1] [m/s]
293.15 K, x2 = 0	805.06	1.37872	1212.6
293.15 K, x2 = 0.0482	811.508	1.3812	1224.5
293.15 K, x2 = 0.1051	819.281	1.3841	1238.6
293.15 K, x2 = 0.148	825.263	1.38629	1249.6
293.15 K, x2 = 0.1915	831.169	1.38843	1262.8
293.15 K, x2 = 0.253	839.789	1.39163	1276.1
293.15 K, x2 = 0.3008	846.349	1.39408	1288.2
293.15 K, x2 = 0.3386	851.673	1.39604	1298
293.15 K, x2 = 0.3915	859.222	1.39872	1311.8
293.15 K, x2 = 0.4432	–	1.40144	–
293.15 K, x2 = 0.4887	873.095	1.40384	1337.4
293.15 K, x2 = 0.5514	882.097	–	1354.1
293.15 K, x2 = 0.5536	–	1.40712	–
293.15 K, x2 = 0.6017	889.386	1.40972	1367.5
293.15 K, x2 = 0.6519	896.759	1.41237	1381.2
293.15 K, x2 = 0.7023	904.135	1.41495	1394.9
293.15 K, x2 = 0.7525	911.634	1.41752	1408.8
293.15 K, x2 = 0.8002	918.668	1.42009	1421.7
293.15 K, x2 = 0.8492	926.05	1.42274	1435.2
293.15 K, x2 = 0.9032	934.175	1.42553	1450.2
293.15 K, x2 = 0.9477	940.9	1.42785	1462.4
298.15 K, x2 = 0	799.78	1.37605	1191.5
298.15 K, x2 = 0.0519	806.811	1.37886	1204.4
298.15 K, x2 = 0.1048	814.011	1.38152	1217.5
298.15 K, x2 = 0.1506	820.379	1.38397	1229.3
298.15 K, x2 = 0.1948	826.51	1.38631	1240.5
298.15 K, x2 = 0.2482	834.008	1.38913	1254.4
298.15 K, x2 = 0.3032	841.593	1.39213	1268.4
298.15 K, x2 = 0.3543	848.769	1.39479	1281.6
298.15 K, x2 = 0.3962	854.829	1.39697	1292.8
298.15 K, x2 = 0.4495	862.429	1.39982	1306.9
298.15 K, x2 = 0.4916	868.442	1.40199	1318
298.15 K, x2 = 0.5536	877.384	1.40522	1334.6
298.15 K, x2 = 0.5946	883.427	1.40739	1345.8
298.15 K, x2 = 0.6572	892.579	1.41063	1362.3
298.15 K, x2 = 0.7034	899.388	1.41301	1375.5
298.15 K, x2 = 0.7461	905.863	1.41516	1387.6
298.15 K, x2 = 0.7965	913.261	1.41779	1401.3
298.15 K, x2 = 0.8488	921.083	1.42048	1415.8
298.15 K, x2 = 0.894	928.027	1.42276	1428.6
298.15 K, x2 = 0.9427	935.405	1.42542	1442.1
303.15 K, x2 = 0	794.55	1.37351	1172
303.15 K, x2 = 0.0496	801.341	1.37623	1184.6
303.15 K, x2 = 0.1068	809.288	1.37911	1199.1
303.15 K, x2 = 0.1478	814.925	1.38113	1209.5
303.15 K, x2 = 0.1836	819.8	1.38314	1218.5
303.15 K, x2 = 0.2521	829.427	1.38686	1236.4
303.15 K, x2 = 0.2943	835.351	1.38911	1248.2
303.15 K, x2 = 0.3532	843.706	1.39202	1262.8
303.15 K, x2 = 0.3938	849.516	1.39409	1273.5
303.15 K, x2 = 0.4538	858.11	1.39728	1289.4
303.15 K, x2 = 0.4969	864.319	1.39967	1301.1
303.15 K, x2 = 0.5486	871.924	1.40242	1315.5
303.15 K, x2 = 0.6028	879.882	1.40517	1330.1
303.15 K, x2 = 0.6517	886.955	1.4078	1343.2
303.15 K, x2 = 0.7023	894.541	1.4105	1357.4
303.15 K, x2 = 0.7483	901.328	1.41287	1369.9
303.15 K, x2 = 0.7995	908.942	1.41553	1384.1
303.15 K, x2 = 0.8514	916.844	1.41823	1399
303.15 K, x2 = 0.8982	923.832	1.42066	1410.9
303.15 K, x2 = 0.946	931.082	1.4232	1425.2
